One data set has as its system CD36. The data set can be described thus: Immunoblot of CD36 in rat primary microglia. The format is cell-based. The following applies: 5 μM each, 48 h; relative to vehicle-treated cells. An excerpt:
Primary microglia (type 1) were harvested from primary mixed glial cell cultures prepared from neonatal Wistar rat pups, as previously reported. Mouse microglial cell line MG5 and mouse glial cell line A1 were maintained as previously described. Mouse neuroblastoma cell line N1E-115 and Neuro 2a (American Type Culture Collection, Manassas, Va., USA) were maintained in Dulbecco's modified Eagle's medium (DMEM) supplemented with 10% fetal bovine serum (FBS), 20 U/ml penicillin (Invitrogen, Gaithersburg, Md., USA), and 20 μg/ml streptomycin (Invitrogen). Primary rat microglia were treated with Am80 (5 μM) and/or HX630 (5 μM) in the presence and absence of GW9662 (10 μM) for 48 h in Eagle's MEM supplemented with 10% FBS and 0.2% glucose. MG5 cells and A1 cells were treated with Am80 (5 μM) and/or HX630 (5 μM) for 48 h in DMEM containing 10% FBS. […]
Rat primary microglia and mouse microglial MG5 cells (5×10^6 cells per 100-mm dish) were homogenized in RIPA buffer [10 mM Hepes-NaOH (pH 7.4) containing 150 mM NaCl, 1 mM EDTA, 1% Triton X-100, 0.5% sodium deoxycholate, 0.1% SDS, 1 mM PMSF, 1 mg/ml leupeptin. […] Bound horseradish peroxidase-labeled antibodies were then detected via chemiluminescence (an ECL kit; Pierce, Rockford, Ill., USA). Protein concentrations were determined with the BCA Protein Assay Reagent (Pierce) and Bradford Protein Assay Reagent (Pierce).
A general note: Immunoblotting shows a protein as a band on a membrane.

The conditions of data set [1]: normal male rats; 2 h after subcutaneous administration at 1 mg/kg; cited from earlier work.

Regarding `CN1c2ccccc2N=C(c2ccc(C(=O)O)cc2)c2cc3c(cc21)C(C)(C)CCC3(C)C` [HX630, 4-[5H-2,3-(2,5dimethyl-2,5-hexano)-5-methyldibenzo[b,e]-diazepin-11-yl]benzoic acid], the “CD36 expression in rat primary microglia” value with CD36 came to 1.3 fold.
Turning to `CC1(C)CCC(C)(C)c2cc(NC(=O)c3ccc(C(=O)O)cc3)ccc21` [Am80, 4-{(5,6,7,8-tetrahydro-5,5,8,8-tetramethyl-2-naphthalenyl)carbamoyl}benzoic acid], the “cerebral tissue content of Am80” value in data set [1] is listed as “around 100 pmol/g tissue”.

(Values after US9861640B2, “Medicament for treatment of Alzheimer's disease” (KEMPHYS LTD., priority 2013, dated 2018).)
